The subject of one assay is Mycosphaerella arachidis. Briefly: Liquid culture, Mycosphaerella arachidis (Cercospora arachidicola), early leaf spot, 4-5 days. The class given is cell-based. The conditions noted are these: Mycosphaerella arachidis, read-out: % reduction fungal growth. The procedure: (§1) Mycelia fragments or conidia suspensions of a fungus, prepared either freshly from liquid cultures of the fungus or from cryogenic storage, were directly mixed into nutrient broth.
(§2) A stock solution for compound of Formula I(a) and Formula I(b) was produced in DMSO (max. 10 mg/ml), which was diluted with water plus 0.025% Tween®20 to produce a 10× concentrated sample and 10 μl of this solution was pipetted into a microtiter plate (96-well format). The nutrient broth containing the fungal spores/mycelia fragments was then added to give an end concentration of the tested compound. The test plates were incubated in the dark at 24 °C and 96% rh. The inhibition of fungal growth was determined photometrically after 2-7 days, depending on the pathosystem, and percent antifungal activity relative to the untreated check was calculated.
(§3) The effect of the test compound (Formula I(a), I(b) and Lipopeptin A) was tested against the following fungi under the conditions as outlined above and specifically herein below:
Mycosphaerella arachidis (Cercospora arachidicola)/liquid culture (early leaf spot) Conidia of the fungus from cryogenic storage were directly mixed into nutrient broth (PDB potato dextrose broth). The inhibition of growth was determined photometrically 4-5 days after application.

Assay [1] relates to Puccinia recondita f. sp. tritici. As to the kind of experiment: Leaf painting assay in wheat seedling, Puccinia recondita. The class given is in vivo, Puccinia recondita f. sp. tritici on wheat (variety Arina). The conditions noted are these: for % reduction of fungal growth: middle segment. The procedure: Wheat seedlings of the variety Riband (for Zymoseptoria tritici trials) or variety Arina (for Puccinia recondite trials) were grown in a glasshouse until 14 d after seeding. At this time, such seedlings usually have a first leaf fully emerged (designated L1), a second leaf fully emerged (L2) and a third leaf (L3) that was partially emerged and in the process of development. Using a permanent pen, two dots were applied on the second leaf such as to generate three segments of roughly equal size: Segment A (at the base), segment B (middle part) and segment C (upper part of the leaf). A stock solution of the test compound was produced in DMSO at a concentration of 10′000 ppm. […] The diluted compound was applied to the middle segment of L2 using a conventional cotton stick; the cotton stick was soaked in the diluted compound and rubbed several times on the adaxial leaf surface between the two marks. 1 day later, the complete plant was inoculated with a fungal spore suspension using a paint brush and application of the spore suspension until before run-off.
For infection with Puccinia recondita: The test plants were inoculated by spraying them with a spore suspension 1 day after application (spore suspension at 80′000 spores per ml in water supplemented with Tween® 20 at 0.1%). After an incubation period of 1 day at 20 °C and 95% rh, the inoculated test plants were kept at 20 °C and 60% rh in a greenhouse.
The three segments of the leaf were evaluated individually.

The subject of assay [2] is Zymoseptoria tritici. Briefly: Liquid culture, Zymoseptoria tritici (Septoria tritici), Septoria leaf blotch, 4-5 days. The class given is cell-based. Particulars: Zymoseptoria tritici, read-out: % reduction fungal growth. The procedure:
as §1, §2, §3
Zymoseptoria tritici (Septoria tritici)/liquid culture (Septoria leaf blotch) Conidia of the fungus from cryogenic storage were directly mixed into nutrient broth (PDB potato dextrose broth). The inhibition of growth was determined photometrically 4-5 days after application.

In assay [3] the test system is Zymoseptoria tritici. Briefly: Liquid culture 96-well mixture assay with malonomicin, Zymoseptoria tritici, 72 hrs. The conditions noted are these: read-out: control of fungal growth (% reduction). It counts as cell-based. The method, then: (§4) A stock solution for compound of Formula I(a) was produced in DMSO (max. 10 mg/ml). Malonomicin was produced according to Law et al, 2018 (Nature Catalys is |VOL 1|DECEMBER 2018|977-984). A stock solution of malonomicin was produced in water plus 0.025% Tween® 20.
(§5) Assays to test efficacy of mixtures of the lipopeptide compound of Formula I(a) in combination with malonomicin on the control of fungal pathogens in a liquid culture assay were designed for a 96well plate as outlined in table 1:
(§6) The 96 well plate design allows to compare disease control of the mixture with disease control of the respective single compound at the same rate.
(§7) A master plate with 10× concentrated solution of the compound stock solutions diluted in water plus 0.025% Tween® 20 was prepared. The concentration of DMSO (from the stock of compound of Formula (a)) and Tween® 20 was kept constant in all cells of the master plate. 10 μl was transferred from the master plate to a 96well test plate. The nutrient broth containing the fungal spores/mycelia fragments was then added to the test plate to give an end concentration of 1× for the tested compounds (as outlined in Table 8). The test plates were incubated in the dark at 24 °C and 96% rh. The inhibition of fungal growth was determined photometrically after ca 3 days, and percent fungal growth reduction relative to the untreated check was calculated.
Zymoseptoria tritici (EPPO Code: SEPTTR)
(§8) Conidia of the fungus from cryogenic storage were directly mixed into nutrient broth (PDB: potato dextrose broth).

The next assay concerns Microdochium nivale. Briefly: Liquid culture 96-well mixture assay with malonomicin, Microdochium nivale, 72 hrs. The conditions noted are these: read-out: control of fungal growth (% reduction). The class given is cell-based. The procedure: as §4, §5, §6, §7
Microdochium nivale (EPPO Code: MONGNI)
as §8

The structures appear in SMILES notation. Like-named read-outs stand apart in the source and are kept apart here. Numbered stars: 1 amine (or outer) side, 2 acyl side, 3 side chain; on linkers, the order of the positions; unused ones are H or OH. Bridge positions count the residues as written; N and C are the ends. Square brackets hold non-standard residues; d marks the D form. Peptide text beside a SMILES is read from it. * marks the point of attachment. X1 = NC(=O)CC(O)C(N[*:1])C(=O)[*:2]; NMeF = CN[CH](Cc1ccccc1)C(=O)O; NMeN = CN[CH](CC(N)=O)C(=O)O; X2 = CCC(C)CCCCCCCCCCC(=O)*

Consider `CCC(C)CCCCCCCCCCC(=O)NC1C(=O)NC(CC(=O)O)C(=O)NC(C(O)CC(N)=O)C(=O)NC(CO)C(=O)N(C)C(CC(N)=O)C(=O)N(C)C(Cc2ccccc2)C(=O)NC(CCC(N)=O)C(=O)NC(CCC(=O)O)C(=O)OC1C` (centres unmarked) [Formula I(b)] (X2-TD[X1]S[NMeN][NMeF]QE; ester 1-C; configuration not given here), for which, in the assay on Mycosphaerella arachidis (Table 2), the inhibition of growth at 0.41 ppm is 0%, the inhibition of growth at 1.2 ppm is 0%, the inhibition of growth at 3.7 ppm was 0% and the inhibition of growth at 11 ppm amounted to 90%. In addition, in the assay with Mycosphaerella arachidis (Table 2), the inhibition of growth at 33 ppm came to 100% and the inhibition of growth at 100 ppm turned out to be 100%. In the assay with Mycosphaerella arachidis (Table 3), the inhibition of growth at 0.41 ppm was found to be 0%, the inhibition of growth at 1.2 ppm stood at 0%, the inhibition of growth at 3.7 ppm amounted to 0% and the inhibition of growth at 11 ppm was 100%. In the assay on Mycosphaerella arachidis (Table 3), the inhibition of growth at 33 ppm came to 100% and the inhibition of growth at 100 ppm worked out at 100%. Further, the “% reduction of fungal growth” value in assay [1] (20 ppm) came out at 55%. Besides, in assay [1] (200 ppm), the “% reduction of fungal growth” value turned out to be 67%. In assay [1] (up to, Table 6, Puccinia), the “control on the treated area (middle segment)” value was “up to 70%”. Besides, in the assay on Zymoseptoria tritici [2] (Table 2), the inhibition of growth at 0.41 ppm is 0%, the inhibition of growth at 1.2 ppm was 0%, the inhibition of growth at 3.7 ppm is 0% and the inhibition of growth at 11 ppm came to 50%. In the assay with Zymoseptoria tritici [2] (Table 2), the inhibition of growth at 33 ppm was found to be 70% and the inhibition of growth at 100 ppm was found to be 70%. In the assay on Zymoseptoria tritici [2] (Table 3), the inhibition of growth at 0.41 ppm was found to be 0%, the inhibition of growth at 1.2 ppm stood at 0%, the inhibition of growth at 3.7 ppm amounted to 0% and the inhibition of growth at 11 ppm amounted to 90%. For the same compound, in the assay on Zymoseptoria tritici [2] (Table 3), the inhibition of growth at 33 ppm was 90% and the inhibition of growth at 100 ppm worked out at 90%.

For the compound `NC[C@@H]1NC(=O)C(C(=O)CC(NC(=O)[C@@H](N)CO)(C(=O)O)C(=O)O)=C1O` [malonomicin, {[(2S)-2-amino-3-hydroxypropanoyl]amino}{2-[(5S)-5-(aminomethyl)-4-hydroxy-2-oxo-2,5-dihydro-1H-pyrrol-3-yl]-2-oxoethyl}malonic acid], the results for the inhibition of growth at 1 ppm with Zymoseptoria tritici [3] (malonomicin 1.00 ppm) and in the assay with Microdochium nivale (malonomicin 1.00 ppm) were 0% and 20%, respectively. The inhibition of growth at 3 ppm is 0% with Zymoseptoria tritici [3] (malonomicin 3.00 ppm) and 20% in the assay with Microdochium nivale (malonomicin 3.00 ppm). The inhibition of growth at 7.81 ppm in the assay on Zymoseptoria tritici [3] (malonomicin 7.81 ppm) was 0%; in the assay on Microdochium nivale (malonomicin 7.81 ppm), 20%. The inhibition of growth at 15.63 ppm in the assay with Zymoseptoria tritici [3] (malonomicin 15.63 ppm) and in the assay on Microdochium nivale (malonomicin 15.63 ppm) was 20% throughout. Further, the inhibition of growth at 31.25 ppm with Zymoseptoria tritici [3] (malonomicin 31.25 ppm) and with Microdochium nivale (malonomicin 31.25 ppm) was 20% each time. For the same compound, the inhibition of growth at 62.5 ppm in the assay with Zymoseptoria tritici [3] (malonomicin 62.5 ppm) and in the assay on Microdochium nivale (malonomicin 62.5 ppm) was 50% each time. Also, the inhibition of growth at 125 ppm came out at 70% in the assay with Zymoseptoria tritici [3] (malonomicin 125 ppm) and 90% in the assay with Microdochium nivale (malonomicin 125 ppm). The results for the inhibition of growth at 250 ppm in the assay on Zymoseptoria tritici [3] (malonomicin 250 ppm) and with Microdochium nivale (malonomicin 250 ppm) were 70% and 100%, respectively. In addition, the inhibition of growth at 500 ppm with Zymoseptoria tritici [3] (malonomicin 500 ppm) turned out to be 90%; in the assay with Microdochium nivale (malonomicin 500 ppm), 100%. The inhibition of growth at 1000 ppm in the assay with Zymoseptoria tritici [3] (malonomicin 1000 ppm) and in the assay with Microdochium nivale (malonomicin 1000 ppm) was 100% in each case.

These data come from patent US20260347403A1, “FUNGICIDAL COMPOUND” (priority 2022, published 2026).
